Reference: patent publication US12364703B2, “Homogeneous ophthalmic composition” (priority 2015, dated 2025)
Structures can show the parent of a compound that is named as a salt.

Test: LCMS and standard curve analysis of the concentration of each active ingredient in solution
Assay type: physicochemical
Conditions: three samples of solutions containing the three active ingredients; LCMS, standard curve
Protocol: Separate stock solutions of moxifloxacin HCI, dexamethasone, and sodium bromfenac were used as standards. Three different samples of solutions containing the three active ingredients, i.e., moxifloxacin HCI, dexamethasone, and sodium bromfenac were analyzed for the concentration of moxifloxacin in solution, the concentration of dexamethasone in solution, and the concentration of sodium bromfenac in solution.

Structure (SMILES)	Concentration in Solution [µg/mL]
Nc1c(CC(=O)O)cccc1C(=O)c1ccc(Br)cc1 [bromfenac sodium]	40.5
COc1c(N2C[C@@H]3CCCN[C@@H]3C2)c(F)cc2c(=O)c(C(=O)O)cn(C3CC3)c12 [moxifloxacin HCI, moxifloxacin hydrochloride]	5458
